Structures can show the parent of a compound that is named as a salt. Where two headings read alike, the source gives them in different places. Square brackets hold non-standard residues; d marks the D form. Peptide text beside a SMILES is read from it. * marks the point of attachment. Boc = CC(C)(C)OC(=O)*; Aib = CC(C)(N)C(=O)O; OcHex = C1CCC(O*)CC1; OBn = c1ccc(CO*)cc1; OtBu = CC(C)(C)O*; tBu = CC(C)(C)*; OAll = C=CCO*
Legend:
[1] = standing 24 hours or more
Description: Peptide samples were screened for crystal stability in several organic solvents. […] The following organic solvents were used for the study: Acetone, ACN, MeOH, EtOH, IPA, BuOH, EtOAc, MTBE, THF, MEK, toluene, and water.
30 mg samples of each peptide tetramer were dispensed into sample vials using an automated dispenser (one vial of each peptide for testing with each solvent). […] Samples were then allowed to stand for 24 hours or more.

[2] = Physical stability of crystalline solid form on isolation/drying (XRPD); format: physicochemical; settings: for physical stability of the crystalline form: during isolation or upon air-drying/drying
[3] = Dynamic vapor sorption (DVS) analysis of hygroscopicity; format: physicochemical
Description: Crystallization of Y-Aib-E-G helps to reject impurities from the crude material. […] Crystallization of the crude Y-Aib-E-G spiked with 1% dimer (impurity) yielded a crystalline Y-Aib-E-G with almost complete rejection of the dimer. Crystallization also improves physical properties, for example, the hygroscopicity.

Compound | Crystal Formed ([1]; solvent ACN) | Crystal Formed ([1]; solvent Acetone) | Crystal Formed ([1]; solvent BuOH) | Crystal Formed ([1]; solvent EtOAc) | Crystal Formed ([1]; solvent EtOH) | Crystal Formed ([1]; solvent H2O) | Crystal Formed ([1]; solvent IPA) | Crystal Formed ([1]; solvent MEK) | Crystal Formed ([1]; solvent MTBE) | Crystal Formed ([1]; solvent MeOH) | Crystal Formed ([1]; solvent THF) | Crystal Formed ([1]; solvent toluene) | physical stability of the crystalline form [2] | physical stability of the crystalline form after vacuum drying ([2]; vacuum drying at 32-33° C. for 1 day) | wt % gain in sorption from 0% to 95% RH [3] [wt %]
C=CCOC(=O)CCC(NC(=O)C(C)(C)NC(=O)C(Cc1ccc(OC(C)(C)C)cc1)NC(=O)OC(C)(C)C)C(=O)NCC(=O)O (stereo not drawn) [Boc—Y(tBu)-Aib-E(All)-G-COOH, Boc-Y(tBu)-Aib-E(All)-G-COOH] (Boc-Y(tBu)[Aib]E(OAll)G-OH; configuration not given here) | No | No | No | Yes | No | No | No | Yes | Yes | No | No | No | – | – | –
CC(C)(C)OC(=O)N[C@@H](Cc1ccc(OC(C)(C)C)cc1)C(=O)NC(C)(C)C(=O)N[C@@H](CCC(=O)OCc1ccccc1)C(=O)NCC(=O)O [Boc—Y(tBu)-Aib-E(Bzl)-G-COOH, Boc-Y(tBu)-Aib-E(Bzl)-G-COOH] (Boc-Y(tBu)[Aib]E(OBn)G-OH) | Yes | Yes | No | Yes | No | No | No | Yes | Yes | No | Yes | Yes | – | – | –
COC(=O)CCC(NC(=O)C(C)(C)NC(=O)C(Cc1ccc(OC(C)(C)C)cc1)NC(=O)OC(C)(C)C)C(=O)NCC(=O)O (stereo not drawn) [Boc—Y(tBu)-Aib-E(Me)-G-COOH, Boc-Y(tBu)-Aib-E(Me)-G-COOH] (Boc-Y(tBu)[Aib]E(OMe)G-OH; configuration not given here) | No | No | No | No | No | No | No | No | Yes | No | No | No | – | – | –
CC(C)(C)OC(=O)NC(Cc1ccc(OC(C)(C)C)cc1)C(=O)NC(C)(C)C(=O)NC(CCC(=O)OC1CCCCC1)C(=O)NCC(=O)O (stereo not drawn) [Boc—Y(tBu)-Aib-E(cHx)-G-COOH, Boc-Y(tBu)-Aib-E(cHx)-G-COOH] (Boc-Y(tBu)[Aib]E(OcHex)G-OH; configuration not given here) | No | No | No | No | No | No | No | No | No | No | No | No | – | – | –
CC(C)(C)OC[C@H](NC(=O)[C@H](COC(C)(C)C)NC(=O)[C@@H]1CCCN1C(=O)CN)C(=O)NCC(N)=O [G-P-S-S-G-NH2 Form A, Gly-Pro-Ser(tBu)-Ser(tBu)-Gly-NH2] (H-GPS(tBu)S(tBu)G-NH2) | – | – | – | – | – | – | – | – | – | – | – | – | physically is not stable and converts to Form B easily | – | –
CC(C)(C)OC[C@H](NC(=O)[C@H](COC(C)(C)C)NC(=O)[C@@H]1CCCN1C(=O)CN)C(=O)NCC(N)=O [G-P-S-S-G-NH2 Form B, Gly-Pro-Ser(tBu)-Ser(tBu)-Gly-NH2] (H-GPS(tBu)S(tBu)G-NH2) | – | – | – | – | – | – | – | – | – | – | – | – | – | remained as Form B | –
CC(C)(C)OC(=O)NC(Cc1cn(-c2ccc([N+](=O)[O-])cc2[N+](=O)[O-])cn1)C(=O)NC(C)(C)C(=O)NC(CCC(=O)NC(c1ccccc1)(c1ccccc1)c1ccccc1)C(=O)NCC(=O)O (stereo not drawn) [H(DNP)-Aib-Q-G Form A, (Boc)-His(dnp)-Aib-Gln(trt)-Gly] | – | – | – | – | – | – | – | – | – | – | – | – | converts to H(DNP)-Aib-Q-G Form C easily | – | –
C[C@H](N)C(=O)N1CCC[C@H]1C(=O)N1CCC[C@H]1C(=O)N1CCC[C@H]1C(=O)N[C@@H](COC(C)(C)C)C(N)=O [H-A-P-P-P-S-NH2 HCl Form A, H-Ala-Pro-Pro-Pro-Ser(tBu)-NH2] (H-APPPS(tBu)-NH2) | – | – | – | – | – | – | – | – | – | – | – | – | loses crystallinity upon isolation/drying | – | –
CC(C)(C)OC(=O)CC[C@H](NC(=O)C(C)(C)NC(=O)[C@H](Cc1ccc(OC(C)(C)C)cc1)NC(=O)OC(C)(C)C)C(=O)NCC(=O)O [Y-Aib-E-G Form B, Boc-l-Tyr (tBu)-Aib-Glu(OtBu)-Gly-OH] (Boc-Y(tBu)[Aib]E(OtBu)G-OH) | – | – | – | – | – | – | – | – | – | – | – | – | – | – | 1.4
CC(C)(C)OC(=O)CC[C@H](NC(=O)C(C)(C)NC(=O)[C@H](Cc1ccc(OC(C)(C)C)cc1)NC(=O)OC(C)(C)C)C(=O)NCC(=O)O [amorphous Y-Aib-E-G, Boc-l-Tyr (tBu)-Aib-Glu(OtBu)-Gly-OH] (Boc-Y(tBu)[Aib]E(OtBu)G-OH) | – | – | – | – | – | – | – | – | – | – | – | – | – | – | 4.1

— patent US20260226102A1, “PEPTIDES FOR INCRETIN SYNTHESIS” (priority 2022, published 2026)
